These results are taken from paper PMC4224610 (Chemistry & biology, 2014).

What all share (assay type): biochemical
Test [1] concerns the target T1, VhAasS (Vibrio harveyi, UniProt Q00IB3). In words: UREA-PAGE of ACP loading. The note with it: holo-E. coli AcpP as acceptor, ATP, MgCl2, DTT, 37 °C overnight.
Test [2] has as its target T1, VhAasS. In words: UREA-PAGE and mass spectrometry of ACP loading. The note with it: holo-E. coli ACP as acceptor, ATP, MgCl2, pH 8, 37 °C overnight.
The target of test [3] is T2, Slr1609 (Synechocystis sp. PCC 6803, UniProt P73004).
T2 sequence (P73004 1-696): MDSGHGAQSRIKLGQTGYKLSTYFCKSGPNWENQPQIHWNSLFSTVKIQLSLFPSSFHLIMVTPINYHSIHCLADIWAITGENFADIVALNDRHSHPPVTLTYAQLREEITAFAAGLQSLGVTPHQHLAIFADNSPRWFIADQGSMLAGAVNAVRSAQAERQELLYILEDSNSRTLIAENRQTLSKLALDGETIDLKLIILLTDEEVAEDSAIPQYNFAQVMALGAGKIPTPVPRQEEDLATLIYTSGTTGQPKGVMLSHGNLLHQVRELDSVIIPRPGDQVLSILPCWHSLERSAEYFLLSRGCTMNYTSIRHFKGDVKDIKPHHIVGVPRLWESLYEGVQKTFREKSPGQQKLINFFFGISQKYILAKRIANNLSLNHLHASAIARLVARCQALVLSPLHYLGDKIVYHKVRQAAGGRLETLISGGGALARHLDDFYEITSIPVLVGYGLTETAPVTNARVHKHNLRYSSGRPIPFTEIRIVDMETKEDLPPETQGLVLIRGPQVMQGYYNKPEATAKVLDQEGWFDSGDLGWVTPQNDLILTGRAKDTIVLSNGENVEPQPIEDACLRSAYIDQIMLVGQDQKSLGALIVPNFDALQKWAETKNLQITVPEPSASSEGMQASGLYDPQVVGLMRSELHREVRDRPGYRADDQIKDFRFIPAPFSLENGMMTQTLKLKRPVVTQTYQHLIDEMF
In words: coupled NADH assay at […] nm. The note with it: decanoic acid, ATP, MgCl2, pH 8 100 mM Tris.

Test [4] concerns the target T3, TTHA0604 (Thermus thermophilus, UniProt Q5SKN9).
T3 sequence (Q5SKN9 1-541): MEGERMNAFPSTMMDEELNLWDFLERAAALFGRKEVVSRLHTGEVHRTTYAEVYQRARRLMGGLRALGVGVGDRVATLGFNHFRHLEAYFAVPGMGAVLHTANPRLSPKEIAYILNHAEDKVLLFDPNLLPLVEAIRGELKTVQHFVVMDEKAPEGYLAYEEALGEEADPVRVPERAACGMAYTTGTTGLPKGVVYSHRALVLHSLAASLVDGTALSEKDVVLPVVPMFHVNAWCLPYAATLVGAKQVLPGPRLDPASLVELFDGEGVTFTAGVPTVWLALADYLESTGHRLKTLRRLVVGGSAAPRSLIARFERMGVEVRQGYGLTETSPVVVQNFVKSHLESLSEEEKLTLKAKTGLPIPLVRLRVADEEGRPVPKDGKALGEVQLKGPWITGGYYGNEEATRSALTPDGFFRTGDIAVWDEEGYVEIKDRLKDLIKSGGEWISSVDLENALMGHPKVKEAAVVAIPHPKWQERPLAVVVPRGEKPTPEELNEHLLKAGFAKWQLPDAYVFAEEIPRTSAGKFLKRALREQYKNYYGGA
The test can be described thus: coupled NADH assay at […] nm. The note with it: decanoic acid, ATP, MgCl2, pH 8 100 mM Tris.

On to `CCCCCCCCCC(=O)O` [decanoic acid], for which the “UREA-PAGE of ACP loading” value in test [1] is “VhAasS showed increased loading over Slr1609, TTHA0604, and AAE15”.

For `O=C(O)CCCCC(=O)c1ccccc1` [5-benzoylvaleric acid], the “UREA-PAGE and mass spectrometry of ACP loading” value in test [2] is given as “functionalized fatty acids”.

In the case of `CC(C)(COP(=O)(O)OP(=O)(O)OC[C@H]1O[C@@H](n2cnc3c(N)ncnc32)[C@H](O)[C@@H]1OP(=O)(O)O)[C@@H](O)C(=O)NCCC(=O)NCCS` [coenzyme A], the “coupled NADH assay at 340 nm; DTNB assay of CoA consumption; HPLC-MS” value in test [3] is “both TTHA0604 and Slr1609 show acyl-CoA ligase activity”; in test [4], “both TTHA0604 and Slr1609 show acyl-CoA ligase activity”.
